The target of the assay is T1, KIAA1363 (AADACL1, NCEH1) (Homo sapiens, UniProt Q6PIU2).
T1 sequence (Q6PIU2 1-408): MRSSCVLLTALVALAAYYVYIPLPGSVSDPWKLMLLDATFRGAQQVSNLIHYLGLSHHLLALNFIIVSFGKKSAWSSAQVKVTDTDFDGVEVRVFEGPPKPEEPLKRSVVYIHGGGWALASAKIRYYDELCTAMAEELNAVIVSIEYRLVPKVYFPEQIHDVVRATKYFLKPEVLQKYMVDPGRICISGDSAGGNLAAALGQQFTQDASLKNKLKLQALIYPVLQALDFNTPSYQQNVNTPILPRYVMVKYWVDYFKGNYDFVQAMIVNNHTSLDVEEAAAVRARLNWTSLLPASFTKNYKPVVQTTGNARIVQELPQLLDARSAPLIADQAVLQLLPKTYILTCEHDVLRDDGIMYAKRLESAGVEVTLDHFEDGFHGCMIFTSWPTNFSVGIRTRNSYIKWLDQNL
In words: competitive gel-based ABPP with FP-Rh in PC3 cells in situ. The class given is cell-based.

As a reminder, the IC50 is the midpoint of a concentration-inhibition curve. Higher therefore signals weaker potency in that assay. In turn, JW576 came in with a half-maximal inhibitory concentration (IC50) of 340 ± 150 nM.

(Values after publication PMC3425385 (2011).)
